Reference: patent publication US20230040770A1, “HETEROCYCLIC COMPOUND AND USE THEREOF” (TAKEDA PHARMACEUTICAL COMPANY LIMITED, priority 2019, published 2023)

Biological target: T1, human orexin type 2 receptor (Homo sapiens, UniProt O43614)
T1 construct: expressed in transfected cells
T1 sequence (O43614 1-444): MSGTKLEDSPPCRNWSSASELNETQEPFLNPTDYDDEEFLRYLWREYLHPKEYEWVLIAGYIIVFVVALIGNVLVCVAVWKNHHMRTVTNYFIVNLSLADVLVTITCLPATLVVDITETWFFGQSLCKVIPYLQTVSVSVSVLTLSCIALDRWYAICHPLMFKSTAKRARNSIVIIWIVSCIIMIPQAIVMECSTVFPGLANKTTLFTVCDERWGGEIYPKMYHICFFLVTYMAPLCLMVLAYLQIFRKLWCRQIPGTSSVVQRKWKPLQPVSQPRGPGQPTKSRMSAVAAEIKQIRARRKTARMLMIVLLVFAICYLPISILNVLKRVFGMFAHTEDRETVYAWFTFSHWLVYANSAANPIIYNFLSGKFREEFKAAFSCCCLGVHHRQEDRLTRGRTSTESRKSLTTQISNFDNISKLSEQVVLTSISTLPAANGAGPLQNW
Test: Measurement of orexin type 2 receptor agonist activity (calcium indicator fluorescence, CHO cells forcibly expressing human OX2 receptor)
Assay type: cell-based
Settings: compound at 3 μM; 0% = DMSO, 100% = orexin A (human) 10 nM
Procedure, shortened: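 Agonist response normalised between vehicle (0%) and orexin A at 10 nM final (100%), from kinetic Fluo-4 calcium signals recorded for about 2 min after compound addition. Cells: stable human OX2R CHO clone, dye-loaded 30 min at 37 °C plus 30 min at room temperature.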

Row | OX2R agonist activity (3 μM, %) [%] | SMILES
1 | 93 | CS(=O)(=O)N[C@H]1[C@@H](F)CN(C(=O)C23CC(C2)C3)[C@H]1Cc1cccc(-c2cc(F)cc(F)c2)c1F [Example 374, N-{(2S,3R,4S)-1-(bicyclo[1.1.1]pentane-1-carbonyl)-4-fluoro-2-[(2,3′,5′-trifluoro[1,1′-biphenyl]-3-yl)methyl]pyrrolidin-3-yl}methanesulfonamide]
2 | 99 | CCS(=O)(=O)N[C@@H]1[C@H](Cc2cccc(-c3cc(F)ccc3F)c2F)N(C(=O)[C@H]2C[C@H](F)C2)CC1(F)F [Example 376, N-{(2S,3R)-4,4-difluoro-1-((1r,3S)-3-fluorocyclobutane-1-carbonyl)-2-[(2,2′,5′-trifluoro[1,1′-biphenyl]-3-yl)methyl]pyrrolidin-3-yl}ethanesulfonamide]
3 | 95 | O=C(C1CC1)N1C[C@H](F)[C@H](NS(=O)(=O)C2CC2)[C@@H]1Cc1cccc(-c2cccc(F)c2F)c1F [Example 377, N-{(2S,3R,4S)-1-(cyclopropanecarbonyl)-4-fluoro-2-[(2,2′,3′-trifluoro[1,1′-biphenyl]-3-yl)methyl]pyrrolidin-3-yl}cyclopropanesulfonamide]
4 | 106 | CCS(=O)(=O)N[C@@H]1[C@H](Cc2cccc(-c3ccccc3)c2F)N(C(=O)[C@H]2C[C@H](F)C2)CC1(F)F [Example 378, N-[(2S,3R)-4,4-difluoro-2-[(2-fluoro[1,1′-biphenyl]-3-yl)methyl]-1-((1r,3S)-3-fluorocyclobutane-1-carbonyl)pyrrolidin-3-yl]ethanesulfonamide]
5 | 93 | O=C(C1CC1)N1C[C@H](F)[C@H](NS(=O)(=O)C2CC2)[C@@H]1Cc1cccc(-c2cc(F)ccc2F)c1F [Example 379, N-{(2S,3R,4S)-1-(cyclopropanecarbonyl)-4-fluoro-2-[(2,2′,5′-trifluoro[1,1′-biphenyl]-3-yl)methyl]pyrrolidin-3-yl}cycloproapnesulfonamide]
6 | 95 | CCS(=O)(=O)N[C@@H]1[C@H](Cc2cccc(-c3cc(F)ccc3F)c2F)N(C(=O)[C@H]2C[C@@H](F)C2)CC1(F)F [Example 381, N-{(2S,3R)-4,4-difluoro-1-((1s,3R)-3-fluorocyclobutane-1-carbonyl)-2-[(2,2′,5′-trifluoro[1,1′-biphenyl]-3-yl)methyl]pyrrolidin-3-yl}ethanesulfonamide]
7 | 102 | CC(C)C(=O)N1C[C@H](F)[C@H](NS(=O)(=O)C2CC2)[C@@H]1Cc1cccc(-c2cccc(F)c2)c1F [Example 382, N-[(2S,3R,4S)-2-[(2,3′-difluoro[1,1′-biphenyl]-3-yl)methyl]-4-fluoro-1-(2-methylpropanoyl)pyrrolidin-3-yl]cyclopropanesulfonamide]
8 | 94 | CCS(=O)(=O)N[C@@H]1[C@H](Cc2cccc(-c3ccccc3)c2F)N(C(=O)[C@H]2C[C@@H](F)C2)CC1(F)F [Example 383, N-[(2S,3R)-4,4-difluoro-2-[(2-fluoro[1,1′-biphenyl]-3-yl)methyl]-1-((1s,3R)-3-fluorocyclobutane-1-carbonyl)pyrrolidin-3-yl]ethanesulfonamide]
9 | 98 | O=C(N1C[C@H](F)[C@H](NS(=O)(=O)C2CC2)[C@@H]1Cc1cccc(-c2cccc(F)c2)c1F)C12CC(C1)C2 [Example 384, N-{(2S,3R,4S)-1-(bicyclo[1.1.1]pentane-1-carbonyl)-2-[(2,3′-difluoro[1,1′-biphenyl]-3-yl)methyl]-4-fluoropyrrolidin-3-yl}cyclopropanesulfonamide]
10 | 95 | O=C(C1CCO1)N1C[C@H](F)[C@H](NS(=O)(=O)C2CC2)[C@@H]1Cc1cccc(-c2cccc(F)c2)c1F (stereo partly drawn) [Example 385, N-[(2S,3R,4S)-2-[(2,3′-difluoro[1,1′-biphenyl]-3-yl)methyl]-4-fluoro-1-(oxetane-2-carbonyl)pyrrolidin-3-yl]cyclopropanesulfonamide]
11 | 85 | CN(C)C(=O)N1C[C@H](F)[C@H](NS(=O)(=O)C2CC2)[C@@H]1Cc1cccc(-c2cccc(F)c2)c1F [Example 387, (2S,3R,4S)-3-[(cyclopropanesulfonyl)amino]-2-[(2,3′-difluoro[1,1′-biphenyl]-3-yl)methyl]-4-fluoro-N,N-dimethylpyrrolidine-1-carboxamide]
12 | 89 | CC(C)(O)C(=O)N1C[C@H](F)[C@H](NS(C)(=O)=O)[C@@H]1Cc1cccc(-c2cccc(Cl)c2)c1F [Example 388, N-[(2S,3R,4S)-2-[(3′-chloro-2-fluoro[1,1′-biphenyl]-3-yl)methyl]-4-fluoro-1-(2-hydroxy-2-methylpropanoyl)pyrrolidin-3-yl]methanesulfonamide]
13 | 89 | CC(C)(O)C(=O)N1C[C@H](F)[C@H](NS(C)(=O)=O)[C@@H]1Cc1cccc(-c2cccc(Cl)c2F)c1F [Example 389, N-[(2S,3R,4S)-2-[(3′-chloro-2,2′-difluoro[1,1′-biphenyl]-3-yl)methyl]-4-fluoro-1-(2-hydroxy-2-methylpropanoyl)pyrrolidin-3-yl]methanesulfonamide]
14 | 92 | CC(C)(O)C(=O)N1C[C@H](F)[C@H](NS(C)(=O)=O)[C@@H]1Cc1cccc(-c2cc(F)cc(Cl)c2)c1F [Example 391, N-[(2S,3R,4S)-2-[(3′-chloro-2,5′-difluoro[1,1′-biphenyl]-3-yl)methyl]-4-fluoro-1-(2-hydroxy-2-methylpropanoyl)pyrrolidin-3-yl]methanesulfonamide]
15 | 97 | CS(=O)(=O)N[C@@H]1[C@H](Cc2cccc(-c3cccc(F)c3)c2F)N(C(=O)C2CC(F)C2)CC1(F)F (stereo partly drawn) [Example 392, N-[(2S,3R)-2-[(2,3′-difluoro[1,1′-biphenyl]-3-yl)methyl]-4,4-difluoro-1-(3-fluorocyclobutane-1-carbonyl)pyrrolidin-3-yl]methanesulfonamide]
16 | 94 | CS(=O)(=O)N[C@@H]1[C@H](Cc2cccc(-c3cccc(F)c3)c2F)N(C(=O)C2CC(F)C2)CC1(F)F (stereo partly drawn) [Example 393, N-[(2S,3R)-2-[(2,3′-difluoro[1,1′-biphenyl]-3-yl)methyl]-4,4-difluoro-1-(3-fluorocyclobutane-1-carbonyl)pyrrolidin-3-yl]methanesulfonamide]
17 | 86 | CCS(=O)(=O)N[C@@H]1[C@H](Cc2cccc(-c3cc(C)cc(F)c3)c2F)N(C(=O)C2(O)CCC2)CC1(F)F [Example 394, N-[(2S,3R)-2-[(2,3′-difluoro-5′-methyl[1,1′-biphenyl]-3-yl)methyl]-4,4-difluoro-1-(1-hydroxycyclobutane-1-carbonyl)pyrrolidin-3-yl]ethanesulfonamide]
18 | 88 | CCS(=O)(=O)N[C@H]1[C@@H](F)CN(C(=O)N(C)C)[C@H]1Cc1cccc(-c2cccc(C)c2F)c1F [Example 408, (2S,3R,4S)-2-[(2,2′-difluoro-3′-methyl[1,1′-biphenyl]-3-yl)methyl]-3-[(ethanesulfonyl)amino]-4-fluoro-N,N-dimethylpyrrolidine-1-carboxamide]
19 | 92 | CCS(=O)(=O)N[C@H]1[C@@H](F)CN(C(=O)N(C)C)[C@H]1Cc1cccc(-c2ccc(F)c(C)c2)c1F [Example 409, (2S,3R,4S)-2-[(2,4′-difluoro-3′-methyl[1,1′-biphenyl]-3-yl)methyl]-3-[(ethanesulfonyl)amino]-4-fluoro-N,N-dimethylpyrrolidine-1-carboxamide]
20 | 99 | CCS(=O)(=O)N[C@H]1[C@@H](F)CN(C(=O)[C@H]2CCCO2)[C@H]1Cc1cccc(-c2ccccc2)c1F [Example 413, N-{(2S,3R,4S)-4-fluoro-2-[(2-fluoro[1,1′-biphenyl]-3-yl)methyl]-1-[(2R)-oxolane-2-carbonyl]pyrrolidin-3-yl}ethanesulfonamide]
21 | 95 | CCS(=O)(=O)N[C@H]1[C@@H](F)CN(C(=O)[C@H]2CCCO2)[C@H]1Cc1cccc(-c2cc(F)cc(F)c2)c1F [Example 414, N-{(2S,3R,4S)-4-fluoro-1-[(2R)-oxolane-2-carbonyl]-2-[(2,3′,5′-trifluoro[1,1′-biphenyl]-3-yl)methyl]pyrrolidin-3-yl}ethanesulfonamide]
22 | 107 | CCS(=O)(=O)N[C@H]1[C@@H](F)CN(C(=O)[C@H]2CCCO2)[C@H]1Cc1cccc(-c2cccc(F)c2F)c1F [Example 415, N-{(2S,3R,4S)-4-fluoro-1-[(2R)-oxolane-2-carbonyl]-2-[(2,2′,3′-trifluoro[1,1′-biphenyl]-3-yl)methyl]pyrrolidin-3-yl}ethanesulfonamide]
23 | 101 | CCS(=O)(=O)N[C@H]1[C@@H](F)CN(C(=O)[C@H]2CCCO2)[C@H]1Cc1cccc(-c2cc(F)ccc2F)c1F [Example 416, N-{(2S,3R,4S)-4-fluoro-1-[(2R)-oxolane-2-carbonyl]-2-[(2,2′,5′-trifluoro[1,1′-biphenyl]-3-yl)methyl]pyrrolidin-3-yl}ethanesulfonamide]
24 | 102 | CCS(=O)(=O)N[C@H]1[C@@H](F)CN(C(=O)C2CCO2)[C@H]1Cc1cccc(-c2cccc(Cl)c2)c1F (stereo partly drawn) [Example 422, N-[(2S,3R,4S)-2-[(3′-chloro-2-fluoro[1,1′-biphenyl]-3-yl)methyl]-4-fluoro-1-(oxetane-2-carbonyl)pyrrolidin-3-yl]ethanesulfonamide]
